Test results reported in US12102634B2, “Use of berbamine or its analogue for preventing or treating RNA virus infection” (City University of Hong Kong, priority 2019, dated 2024).
Entries after “also recorded” stand apart in the source; their conditions may differ. Like-named read-outs stand apart in the source and are kept apart here.

Legend:
JEV [1] = assay: JEV lethal challenge in mice; format: in vivo, BALB/c mice; details: 15 days
Protocol: JEV-infected with berbamine-treated group. For infection, mice were injected intraperitoneally with approximately 10^6.5 TCID50 of JEV. For the berbamine treatment group, mice were injected intraperitoneally with a dose of 15 mg/kg berbamine or PBS daily. For the control-vehicle group, mice were injected intraperitoneally with a dose of 50 mg/kg PBS daily. Survival rate and change of body weight if the mice in each group were monitored for 15 days after JEV injection.

EV-A71 = assay: High-content image assay, EV-A71 infection of RD cells; format: cell-based, enterovirus EV-A71 (EV-71); details: 10 MOI EV-71, read-out: EC50 against EV-A71 infection in RD cells
Description: After viral infection, the cells are fixed.

lentivirus = assay: Lentivirus (histone B-RFP) infection of A549 cells; format: cell-based; details: pretreated A549 cells, lentivirus encoding histone B-RFP
[2] = tested on: MLV-SARS-CoV-2 S pseudotyped particles; format: cell-based
[3] = tested on: MERS-SARS-CoV S pseudotyped particles; format: cell-based
MERS-CoV = format: cell-based
SARS-CoV-2 [4] = assay: SARS-CoV-2 infection of Vero-E6 cells, virus titration assay; format: cell-based; details: Severe acute respiratory syndrome coronavirus 2, Vero C1008, read-out: EC50, SARS-CoV-2 viral yield by virus titration assay
Protocol: FIG. 12F is a plot showing the inhibition rate determined by using virus titer measurement, in which Vero-E6 cells were treated with berbamine at the indicated concentrations for 3 h, followed by infection with SARS-CoV-2.

lysosomal Ca^2+ channels = assay: GPN-induced Ca2+ release from lysosomes in Fura-2-loaded HeLa cells; format: cell-based; details: 10 μM, 200 μM GPN
Protocol: (§1) HeLa cells were grown in 24-well plates to ˜80% confluency. The cells were then loaded with HBSS (Gibco, 14025092) containing 4 μM Fura-2 AM (Invitrogen, F1221) and 0.4% Pluronic™ F-127 (Invitrogen, P3000MP) at room temperature for 30 min. The cells were then washed with Ca^2+-free HBSS containing 2 mM EGTA and incubated in Ca^2+-free HBSS in the presence or absence of berbamine (10 μM) at room temperature for another 30 min. Fluorescence images were acquired at 3 s intervals by alternate excitation at 340 nm and 380 nm with emission at 510 nm using a Nikon Eclipse Ti-S Calcium imaging system. Approximately 1 min after live cell imaging, 200 μM GPN (Abcam, ab145914) or 25 μM ML-SA1 (Tocris Bioscience, 4746) was added to the cells to trigger Ca2+ release from the lysosomes.

TRPMLs = assay: ML-SA1-induced cytosolic Ca2+ increase in Fura-2-loaded HeLa cells; format: cell-based; details: 10 μM, 25 μM ML-SA1
Protocol: as §1

Huh7 cells = assay: Secretion of extracellular vesicles by Huh7 cells, nanoparticle tracking analyzer; format: cell-based
Protocol: The EVs were collected from the culture medium of control or berbamine-treated Huh7 cells, and their concentration and distribution of sizes were determined with a nanoparticle tracking analyzer.
The inventors then examined whether these EVs contain elevated levels of ACE2 or DPP4 in the berbamine-treated group when compared with the control group. Thus, EVs in the culture medium from the control and berbamine-treated Huh7 cells were collected by ultracentrifugation, and the protein levels of ACE2 and DPP4 were analyzed by immunoblot analysis. […] The inventors also speculated that the increase in the secretion of ACE2 and DPP4-containing exosomes out of cells might lead to the reduced levels of these receptors in berbamine-treated cells. […] Similar results regarding the effects of berbamine on the expression of ACE2 in cells or EVs have also observed in A549 cells (FIGS. 15D and 15E). […] This leads to an increase in the level of secretion of ACE2 or DPP4 via EVs and a concomitant decrease in their levels at the plasma membrane.
Purification of extracellular vesicles from the culture medium-A549 cells or Huh7 cells were grown in 15-cm dishes to ˜80% confluency. The cells were then rinsed with PBS and incubated in EV-depleted complete medium containing DMSO or berbamine (25 μM) for 48 h. […]

ACE2 = format: cell-based
DPP4 = format: cell-based
SARS-CoV-2 [5] = assay: in vitro; details: African green monkey
[6] = Cytotoxicity in Vero cells; details: African green monkey
[7] = Cytotoxicity in Hela cells; details: human
[8] = Cytotoxicity in A549 cells; details: human
[9] = Cytotoxicity in Huh7 cells; details: human
[10] = Cytotoxicity in BHK-21 cells; details: Syrian hamster
SARS-CoV-2 [11] = assay: microbe, parasite or virus in culture; details: Severe acute respiratory syndrome coronavirus 2, Vero C1008, read-out: EC50, SARS-CoV-2 viral yield by qRT-PCR assay
JEV [12] = assay: JEV-induced cell death in A549 or BHK-21 cells; details: pretreated A549 cells or BHK-21 cells
JEV [13] = assay: Virus titration assay, JEV production in A549 cells; details: A549 cells pretreated
DENV-2 = assay: DsRNA immunostaining, DENV-2 infection of A549 cells; details: pretreated 1 h, about 10 MOI DENV-2, dose dependent
JEV [14] = assay: High-content image assay, JEV infection of JEG-3 cells; details: JEG-3 cells pretreated 1 h, about 50 MOI, 18 h
ZIKV [15] = assay: High-content image assay, ZIKV infection of JEG-3 cells; details: JEG-3 cells pretreated 1 h, about 50 MOI, 18 h
JEV [16] = assay: Western blot of JEV-NS1 expression in JEV-infected A549 cells; details: A549 cells pretreated 1 h
ZIKV [17] = assay: Western blot of ZIKV-E expression in ZIKV-infected A549 cells; details: A549 cells pretreated 1 h
ZIKV [18] = assay: ZIKV entry, anti-ZIKV envelope protein immunostaining in A549 cells; details: ZIKV on ice 1 h, then 37° C. 40 min
JEV [19] = assay: High-content image assay (DsRNA immunostaining), JEV infection of A549 cells; details: human
ZIKV [20] = assay: High-content image assay (DsRNA immunostaining), ZIKV infection of A549 cells; details: human
[21] = 15 mg/kg intraperitoneally daily, vs control group
[22] = EVs from treated Huh7 cell culture medium
[23] = Vero-E6 cells, cycloheximide, 50 μM, 6 h

**Q.** Which “body weight change of mice after JEV challenge” value (JEV [1]; [21]) does the source give for COc1cc2c3cc1Oc1c(OC)c(OC)cc4c1[C@@H](Cc1ccc(O)c(c1)Oc1ccc(cc1)C[C@@H]3N(C)CC2)N(C)CC4 [berbamine] here?
**A.** less weight changes

**Q.** And the “survival rate of mice after JEV challenge” value (JEV [1]; [21])?
**A.** increases the survival rate

**Q.** What about the “survival rate of mock (uninfected) mice given compound vs mock group” value (JEV [1]; mock group with 15 mg/kg) of the same molecule?
**A.** same survival rate

**Q.** What about the EC50 (EV-A71) of the same molecule?
**A.** ~17.3 µM

**Q.** And the EC50 (EV-A71; Enterovirus A, EV71 / EVA71, RD)?
**A.** ~17 µM

**Q.** And the “lentivirus infection of A549 cells” value (lentivirus)?
**A.** abolished

**Q.** And the “entry of MLV-SARS-CoV-2 S pseudovirus particles” value [2]?
**A.** effectively inhibited; also recorded: inhibited the entry

**Q.** What about the “entry of MERS-SARS-CoV S pseudovirus particles” value [3] of the same molecule?
**A.** effectively inhibited; also recorded: inhibited the entry

**Q.** And the “extracellular level of MERS-CoV RNA” value (MERS-CoV)?
**A.** significantly decreased

**Q.** What about the “intracellular level of MERS-CoV RNA” value (MERS-CoV) of the same molecule?
**A.** significantly decreased

**Q.** What about the EC50 (SARS-CoV-2 [4]) of the same molecule?
**A.** ~4.7 µM

**Q.** And the “GPN-induced cytosolic Ca2+ increase” value (lysosomal Ca^2+ channels)?
**A.** significantly inhibited

**Q.** And the “ML-SA1-induced cytosolic Ca2+ increase” value (TRPMLs)?
**A.** significantly inhibited

**Q.** And the “secretion of EVs” value (Huh7 cells)?
**A.** significantly promoted

**Q.** And the “level of ACE2 in EVs” value (ACE2; [22])?
**A.** markedly increased

**Q.** And the “level of ACE2 in cells” value (ACE2; [23])?
**A.** markedly decreased

**Q.** And the “level of DPP4 in EVs” value (DPP4; [22])?
**A.** markedly increased

**Q.** What about the “level of DPP4 in cells” value (DPP4; [23]) of the same molecule?
**A.** markedly decreased

**Q.** And the selectivity ratio (SARS-CoV-2 [5])?
**A.** 48.9

**Q.** What about the CC50 [6] of the same molecule?
**A.** 115 ± 5.3 µM

**Q.** What about the CC50 [7] of the same molecule?
**A.** 115 ± 3.6 µM

**Q.** And the CC50 [8]?
**A.** 127 ± 3.9 µM

**Q.** What about the CC50 [9] of the same molecule?
**A.** 90.4 ± 2.98 µM

**Q.** What about the CC50 [10] of the same molecule?
**A.** 127 ± 2.43 µM

**Q.** What about the EC50 (SARS-CoV-2 [11]) of the same molecule?
**A.** ~2.3 µM

**Q.** And the JEV-induced cell death (JEV [12])?
**A.** markedly reduced

**Q.** And the “production of JEV (virus titer)” value (JEV [13])?
**A.** significantly inhibited; also recorded: markedly inhibited

**Q.** What about the “DENV-2 infection in A549 cells” value (DENV-2) of the same molecule?
**A.** significantly inhibit

**Q.** What about the “JEV infection in JEG-3 cells” value (JEV [14]) of the same molecule?
**A.** significantly inhibited

**Q.** What about the “ZIKV infection in JEG-3 cells” value (ZIKV [15]) of the same molecule?
**A.** significantly inhibited

**Q.** What about the “protein expression of JEV-NS1” value (JEV [16]) of the same molecule?
**A.** markedly inhibited

**Q.** What about the “protein expression of ZIKV-E” value (ZIKV [17]) of the same molecule?
**A.** markedly inhibited

**Q.** And the “entry of ZIKV into host cells” value (ZIKV [18])?
**A.** inhibitory effect

**Q.** What about the selectivity ratio (JEV [19]) of the same molecule?
**A.** 78.2

**Q.** And the selectivity ratio (ZIKV [20])?
**A.** 58.4
